Publication PMC3142127, “Structural Analysis of Papain-Like NlpC/P60 Superfamily Enzymes with a Circularly Permuted Topology Reveals Potential Lipid Binding Sites” (PLoS ONE, 2011)

Target: T1, BcPPNE (Bacillus cereus, UniProt Q74NK7)
T1 construct: gene BCE_A0238; weak tetramer in solution
T1 sequence (Q74NK7 1-195): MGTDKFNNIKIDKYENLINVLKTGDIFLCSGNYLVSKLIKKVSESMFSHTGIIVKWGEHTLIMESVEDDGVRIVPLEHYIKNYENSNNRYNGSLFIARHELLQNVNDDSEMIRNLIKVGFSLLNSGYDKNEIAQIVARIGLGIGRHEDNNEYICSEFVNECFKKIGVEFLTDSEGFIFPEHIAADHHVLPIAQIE
Test: Thermofluor (thermal shift)
Assay type: binding
Conditions: no shift value printed

## N[C@@H](COP(=O)(O)O)C(=O)O [O-phospho-L-serine]
Crystals soaked at 1 mM showed no ligand density, L-Lys remained bound
  Thermofluor (thermal shift): Thermofluor experiments indicated that BcPPNE also binds L-arginine and O-phospho-L-serine

## N=C(N)NCCC[C@H](N)C(=O)O [L-arginine]
  Thermofluor (thermal shift): Thermofluor experiments indicated that BcPPNE also binds L-arginine and O-phospho-L-serine
